Source: patent US20090060873A1, “Novel synthetic triterpenoids and methods of use in the treatment and prevention of multiple scleroris” (Reata Pharmaceuticals, Inc., priority 2007, published 2009)
Entries after “also recorded” stand apart in the source; their conditions may differ.

Legend:
[1] = system: heme oxygenase-1 (HO-1); conditions: nanomolar concentrations; cited from earlier work
[2] = Brain levels of triterpenoids in mice fed compound in diet (LC/MS)
[3] = Tissue distribution of CDDO-Me in cynomolgus monkeys after 3 days of oral dosing; type: in vivo; conditions: cynomolgus monkey, about 3 h after last dose, sesame oil vehicle
Protocol: Experiments using CDDO-Me (RTA-402) were also conducted on 1 male and 1 female cynomolgus monkey (origin: Vietnam) between the ages of 2 and 3 years and weighing approximately 1.7 kg. Each received the test article (CDDO-Me in sesame oil) at 75 mg/kg/day via oral gavage administered at a volume of 5 mL/kg on Days 1, 2, and 3. Individual doses were based on the most recently obtained body weights. Blood samples were collected from the femoral artery/vein for determination of the plasma concentrations of the test article at 0.5, 1.5, 3, and 12 hours after dosing on Days 1 and 2 and at 0.5, 1.5, and 3 hours after dosing (±0.5 hour) on Day 3.
At the termination of the study (approximately three hours after dosing on Day 3), all animals were euthanized and tissues collected. Samples (approximately 1 g or greater) of the adipose tissue, brain, colon, cheek pouch (buccal mucosa), heart, ileum, kidney, liver, lung, mammary glands, ovaries, pancreas, prostate, and bone marrow from the femur (as much as possible) were collected and frozen at approximately −20° C. for analysis for the presence of the test article. All other tissues and organs were discarded.
In Table 1 nM is ng/mL×1000/505.8, where 505.8 is the molecular weight of RTA-402 using the approximation that the density of the tissue is that of water.

[4] = system: MOG-induced EAE; test: Prophylactic treatment in MOG EAE model; type: in vivo, mouse; conditions: 100 nanomoles IP, pre and/or post MOG (Day -1, 1, 3, 5); FIGS. 23, 24
Protocol: FIGS. 23 & 24—Prophylactic Treatment of CDDO-Me (RTA 402) or CDDO-TFEA (RTA-404) Delays Induction of Symptoms in Model of Multiple Sclerosis.
In prophylactic studies (FIGS. 23-24) the following design was used:
Day-1: 100 nanomoles IP RTA 404 (2.9 mg/kg) or RTA 402 (2.5 mg/kg) in pre and pre/post groups
Day 1: 100 nanomoles IP RTA 404 (2.9 mg/kg) or RTA 402 (2.5 mg/kg) in post and pre/post groups
Day 3: 100 nanomoles IP RTA 404 (2.9 mg/kg) or RTA 402 (2.5 mg/kg) in post and pre/post groups
Day 5: 100 nanomoles IP RTA 404 (2.9 mg/kg) or RTA 402 (2.5 mg/kg) in post and pre/post groups

[5] = system: NF-κB; conditions: NF-κB activated by TNF, IL-1β, phorbol ester, okadaic acid, hydrogen peroxide, LPS, cigarette smoke; cited from earlier work
[6] = system: MOG-induced EAE; test: MOG-induced rapidly progressive EAE model, treatment, clinical score; type: in vivo, mouse; conditions: 100 nmol (~2.8 mg/kg) IP, Q2Dx4, in 7.5% PBST, n=2/group

SMILES: CC1(C)CC[C@]2(C(=O)O)CC[C@]3(C)[C@H](C(=O)C=C4[C@@]5(C)C=C(C#N)C(=O)C(C)(C)[C@@H]5CC[C@]43C)[C@@H]2C1 [CDDO, 2-cyano-3,12-dioxooleane-1,9(11)-dien-28-oic acid]
- expression of HO-1 [1]: rapidly increase the expression of the cytoprotective heme oxygenase-1 (HO-1) enzyme

SMILES: CC1(C)CC[C@]2(C(=O)n3ccnc3)CC[C@]3(C)[C@H](C(=O)C=C4[C@@]5(C)C=C(C#N)C(=O)C(C)(C)[C@@H]5CC[C@]43C)[C@@H]2C1 [CDDO-Im]
- expression of HO-1 [1]: rapidly increase the expression of the cytoprotective heme oxygenase-1 (HO-1) enzyme

SMILES: CNC(=O)[C@]12CCC(C)(C)C[C@H]1C1C(=O)C=C3[C@@]4(C)C=C(C#N)C(=O)C(C)(C)[C@@H]4CC[C@@]3(C)[C@]1(C)CC2 (some centres unmarked) [CDDO-MA]
- concentration in brains of mice ([2]; 800 mg/kg diet, 2 or 4 days, FIG. 2): Significant Concentrations

SMILES: COC(=O)[C@]12CCC(C)(C)C[C@H]1[C@H]1C(=O)C=C3[C@@]4(C)C=C(C#N)C(=O)C(C)(C)[C@@H]4CC[C@@]3(C)[C@]1(C)CC2 [CDDO-Me]
- average tissue concentration, Breast [3]: 4,389 nM
- average tissue concentration, Colon [3]: 4,467 nM
- average tissue concentration, Kidney [3]: 1,603 nM
- average tissue concentration, Liver [3]: 926 nM
- average tissue concentration, Lung [3]: 4,992 nM
- average tissue concentration, Ovary [3]: 2,115 nM
- average tissue concentration, Prostate [3]: 4,446 nM
- tissue concentration, Brain (range of results obtained) [3]: 215 to 447 nM
- level of compound in mouse brain ([2]; fed very low levels in diet for one week (100 mg/kg diet), FIG. 1): able to reach appreciable levels in the brain; also recorded: Detectable in the Brains of Mice
- delay of development of clinical scores [4]: modestly delayed
- inhibition of constitutive and inducible NF-κB [5]: potently inhibits both constitutive and inducible NF-κB
- recovery of clinical score (CS 0 no symptoms, 6 quadriplegia) [6]: induce full recovery of mice
- recovery of clinical score (CS 0 no symptoms, 6 quadriplegia) ([6]; listed as RTA 402): induce complete recovery of symptoms after initial relapse
- recovery of clinical score (CS 0 no symptoms, 6 quadriplegia) ([6]; listed as RTA-402): Induce Full Recovery of Mice; also recorded: Treated Animals Recover
